The record followed here is patent publication US20240408169A1 (priority 2023, published 2024).

The target in one assay is T1, CyclinA2/CDK2 (Homo sapiens, UniProt P20248).
T1 construct: purchased CRELUX Protein Services
Nature of the assay: Fluorescence Polarization (FP) competitive binding assay, Cyclin A2/Cdk2.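 Further: plates equilibrated two hours at room temperature before polarization reading, IC50 fitted from eight-concentration compound titration curves.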 Conditions: 8 nM Cyclin A2/Cdk2, 2 nM FAM probe; average of 2-3 independent experiments; read-out: Cyclin A FP IC50.

The target in a further assay is T2, CyclinE1/CDK2 (Homo sapiens, UniProt P24864).
T2 construct: purchased Eurofins, discovery 14-475
Nature of the assay: Fluorescence Polarization (FP) competitive binding assay, Cyclin E1/Cdk2.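 Further: readings taken after two-hour equilibration at room temperature in HEPES buffer with NaCl, DTT, NP-40 and BSA, IC50 fitted from eight-concentration serial dilution series.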 The conditions noted are these: 10 nM Cyclin E1/Cdk2, 2 nM FAM probe; average of 2-3 independent experiments; read-out: Cyclin E FP IC50.

In a further assay the test system is NCI-H1048 cells. Nature of the assay: MTT proliferation assay, NCI-H1048.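 Further: Dose-response in 96-well plates over 8 or 10 concentration points, with exposure spanning 3-4 cell doublings.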 In kind it is cell-based. The conditions noted are these: 5 days compound exposure, 1:3 serial dilution starting at 10 μM.
For a further assay, the system named is OVCAR3 cells. Nature of the assay: MTT proliferation assay, OVCAR3.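 Further: compound given as an 8- or 10-point series, one day after plating, with exposure covering roughly 3-4 cell doublings.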 The conditions noted are these: 5 days compound exposure, 1:3 serial dilution starting at 10 μM. In kind it is cell-based.
A further assay concerns the target T3, CyclinB1/CDK1 (Homo sapiens, UniProt P14635).
T3 construct: purchased Eurofins, discovery 14-450
Kind of assay: Fluorescence Polarization (FP) competitive binding assay, Cyclin B1/Cdk1.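 Further: fluorescence polarization read after equilibration at room temperature, with IC50 taken from serially diluted dose-response curves.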 The conditions noted are these: 10 nM Cyclin B1/Cdk1, 2 nM FAM probe; average of 2-3 independent experiments; read-out: Cyclin B FP IC50.

*1 amine or outer side, *2 acyl side, *3 side chain or, on linkers, in order; H or OH if unused. Where a SMILES comes first, the peptide text is derived from it. Bridges are numbered along the chain shown (N, C = ends). [ ]: non-standard residue; d: D form. The star is where a group is joined. X120 = CN([C@@H](Cc1cc(Cl)ccc1-c1ccn(S(C)(=O)=O)c1)C(=O)[*:2])[*:1]; X141 = CN([C@@H](Cc1cc(Cl)ccc1C1=CCN(S(C)(=O)=O)C1)C(=O)[*:2])[*:1]; X130 = CN([C@@H](Cc1cc(F)ccc1-c1ccn(S(C)(=O)=O)c1)C(=O)[*:2])[*:1]; X137 = CN([C@@H](Cc1cc(F)ccc1-c1cnn(S(C)(=O)=O)c1)C(=O)[*:2])[*:1]; X82 = CN([C@@H](Cc1cc(Cl)ccc1-c1cnn(S(C)(=O)=O)c1)C(=O)[*:2])[*:1]; X171 = CC(=O)N1CC=C(c2ncc(Cl)cc2C[C@@H](C(=O)[*:2])N(C)[*:1])CC1; X187 = CC(=O)N1CC=C(c2ccc(Cl)cc2C[C@@H](C(=O)[*:2])N(C)[*:1])C1; NMehhhLys(Me) = CN([C@@H](CCCCCCCN(C)[*:3])C(=O)[*:2])[*:1]; NMe(hhhLys) = CN([C@@H](CCCCCCCN[*:3])C(=O)[*:2])[*:1]; Oxane2carbonyl(2R-CF3) = O=C([C@@]1(C(F)(F)F)CCCCO1)*; cBuCO(3,3-F2-1-CF3) = O=C(C1(C(F)(F)F)CC(F)(F)C1)*; Pro(trans-4-F) = O=C(O)[C@@H]1C[C@@H](F)CN1; Pivaloyl(3,3,3-F3) = CC(C)(C(=O)*)C(F)(F)F; Gly(cPr) = N[C@H](C(=O)O)C1CC1

Take `CC(C)C[C@@H]1NC(=O)[C@@H](N(C)C(=O)[C@@H](NC(=O)[C@@H]2C[C@@H](F)CN2C(=O)C(C)(C)C(F)(F)F)C2CC2)CCCCCCCN(C)C(=O)[C@H](Cc2cc(Cl)ccc2-c2cnn(S(C)(=O)=O)c2)N(C)C1=O` [Example 301] ({Pivaloyl(3,3,3-F3)}-[Pro(trans-4-F)][Gly(cPr)][NMehhhLys(Me)]L[X82]; lactam 3-C): the half-inhibitory concentration (IC50) was 40 nM on CyclinA2/CDK2, 320 nM at CyclinE1/CDK2 and 20 nM at CyclinB1/CDK1. The GI50 in the assay on NCI-H1048 cells and in the assay with OVCAR3 cells was 20 nM in each case.

Regarding `CC(=O)N1CC=C(c2ncc(Cl)cc2C[C@H]2C(=O)NCCCCCCC[C@H](N(C)C(=O)[C@@H](NC(=O)[C@@H]3C[C@@H](F)CN3C(=O)C3(C(F)(F)F)CC(F)(F)C3)C3CC3)C(=O)N[C@@H](CC(C)C)C(=O)N2C)CC1` [Example 302] ({cBuCO(3,3-F2-1-CF3)}-[Pro(trans-4-F)][Gly(cPr)][NMe(hhhLys)]L[X171]; lactam 3-C), the IC50 at CyclinA2/CDK2 stood at 50 nM; at CyclinE1/CDK2 it was 3560 nM; at CyclinB1/CDK1, 20 nM. The GI50 with NCI-H1048 cells is 140 nM; with OVCAR3 cells, 120 nM.

For the compound `CC(C)C[C@@H]1NC(=O)[C@@H](N(C)C(=O)[C@@H](NC(=O)[C@@H]2C[C@@H](F)CN2C(=O)[C@@]2(C(F)(F)F)CCCCO2)C2CC2)CCCCCCCN(C)C(=O)[C@H](Cc2cc(F)ccc2-c2cnn(S(C)(=O)=O)c2)N(C)C1=O` [Example 303] ({Oxane2carbonyl(2R-CF3)}-[Pro(trans-4-F)][Gly(cPr)][NMehhhLys(Me)]L[X137]; lactam 3-C), the IC50 on CyclinA2/CDK2 was found to be 30 nM; on CyclinE1/CDK2, 100 nM; at CyclinB1/CDK1, 20 nM. The GI50 with NCI-H1048 cells and with OVCAR3 cells was 10 nM throughout.

For the compound `CC(C)C[C@@H]1NC(=O)[C@@H](N(C)C(=O)[C@@H](NC(=O)[C@@H]2C[C@@H](F)CN2C(=O)C(C)(C)C(F)(F)F)C2CC2)CCCCCCCN(C)C(=O)[C@H](Cc2cc(F)ccc2-c2cnn(S(C)(=O)=O)c2)N(C)C1=O` [Example 304] ({Pivaloyl(3,3,3-F3)}-[Pro(trans-4-F)][Gly(cPr)][NMehhhLys(Me)]L[X137]; lactam 3-C), the IC50 at CyclinA2/CDK2 was 40 nM; at CyclinE1/CDK2 it was 190 nM; on CyclinB1/CDK1 it was 20 nM. Moreover, the GI50 with NCI-H1048 cells and in the assay with OVCAR3 cells was 10 nM in each case.

For `CC(C)C[C@@H]1NC(=O)[C@@H](N(C)C(=O)[C@@H](NC(=O)[C@@H]2C[C@@H](F)CN2C(=O)C2(C(F)(F)F)CC(F)(F)C2)C2CC2)CCCCCCCN(C)C(=O)[C@H](Cc2cc(F)ccc2-c2ccn(S(C)(=O)=O)c2)N(C)C1=O` [Example 306] ({cBuCO(3,3-F2-1-CF3)}-[Pro(trans-4-F)][Gly(cPr)][NMehhhLys(Me)]L[X130]; lactam 3-C), the IC50 was found to be 20 nM on CyclinA2/CDK2, 200 nM on CyclinE1/CDK2 and 20 nM on CyclinB1/CDK1. Moreover, the GI50 in the assay on NCI-H1048 cells and with OVCAR3 cells was 10 nM in each case.

Regarding `CC(C)C[C@@H]1NC(=O)[C@@H](N(C)C(=O)[C@@H](NC(=O)[C@@H]2C[C@@H](F)CN2C(=O)C2(C(F)(F)F)CC(F)(F)C2)C2CC2)CCCCCCCN(C)C(=O)[C@H](Cc2cc(Cl)ccc2-c2ccn(S(C)(=O)=O)c2)N(C)C1=O` [Example 307] ({cBuCO(3,3-F2-1-CF3)}-[Pro(trans-4-F)][Gly(cPr)][NMehhhLys(Me)]L[X120]; lactam 3-C), the IC50 on CyclinA2/CDK2 is 20 nM; at CyclinE1/CDK2, 440 nM; on CyclinB1/CDK1 it was 20 nM. Moreover, the GI50 in the assay on NCI-H1048 cells and in the assay with OVCAR3 cells was 10 nM each time.

Take `CC(=O)N1CC=C(c2ccc(Cl)cc2C[C@H]2C(=O)N(C)CCCCCCC[C@H](N(C)C(=O)[C@@H](NC(=O)[C@@H]3C[C@@H](F)CN3C(=O)C3(C(F)(F)F)CC(F)(F)C3)C3CC3)C(=O)N[C@@H](CC(C)C)C(=O)N2C)C1` [Example 308] ({cBuCO(3,3-F2-1-CF3)}-[Pro(trans-4-F)][Gly(cPr)][NMehhhLys(Me)]L[X187]; lactam 3-C): the results for the IC50 at CyclinA2/CDK2, on CyclinE1/CDK2 and on CyclinB1/CDK1 were 20 nM, 840 nM and 20 nM, respectively. Also, the GI50 in the assay on NCI-H1048 cells and with OVCAR3 cells was 10 nM each time.

`CC(C)C[C@@H]1NC(=O)[C@@H](N(C)C(=O)[C@@H](NC(=O)[C@@H]2C[C@@H](F)CN2C(=O)C2(C(F)(F)F)CC(F)(F)C2)C2CC2)CCCCCCCN(C)C(=O)[C@H](Cc2cc(Cl)ccc2C2=CCN(S(C)(=O)=O)C2)N(C)C1=O` [Example 309] ({cBuCO(3,3-F2-1-CF3)}-[Pro(trans-4-F)][Gly(cPr)][NMehhhLys(Me)]L[X141]; lactam 3-C): the IC50 amounted to 20 nM at CyclinA2/CDK2, 930 nM on CyclinE1/CDK2 and 20 nM at CyclinB1/CDK1. The GI50 in the assay on NCI-H1048 cells and with OVCAR3 cells was 10 nM each time.
